Experiment [1] concerns the target recombinant BACE1 protein (Homo sapiens (Human), UniProt P56817). The experiment in a line: BACE1 Biochemical FRET based assay - Method 2. To be noted: 0.04 μg/ml BACE1, 20 μM substrate, 450 min, pH 5.0. From the text: (§1) This assay is a Fluorescence Resonance Energy Transfer Assay (FRET) based assay. The substrate for this assay is an APP derived 13 amino acids peptide that contains the ‘Swedish’ Lys-Met/Asn-Leu mutation of the amyloid precursor protein (APP) beta-secretase cleavage site. This substrate also contains two fluorophores: (7-methoxycoumarin-4-yl) acetic acid (Mca) is a fluorescent donor with excitation wavelength at 320 nm and emission at 405 nm and 2,4-Dinitrophenyl (Dnp) is a proprietary quencher acceptor. […] Upon cleavage by BACE1, the fluorophore Mca is separated from the quenching group Dnp, restoring the full fluorescence yield of the donor. The increase in fluorescence is linearly related to the rate of proteolysis.
Briefly in a 384-well format recombinant BACE1 protein in a final concentration of 0.04 μg/ml is incubated for 450 minutes at room temperature with 20 μM substrate in incubation buffer (50 mM Citrate buffer pH 5.0, 0.05% PEG) in the presence of compound or DMSO. Next the amount of proteolysis is directly measured by fluorescence measurement (excitation at 320 nm and emission at 405 nm) at different incubation times (0, 30, 60, 90, 120 and 450 min). For every experiment a time curve (every 30 min between 0 min and 120 min) is used to determine the time where we find the lowest basal signal of the high control. The signal at this time (Tx) is used to subtract from the signal at 450 min. Results are expressed in RFU, as difference between T450 and Tx.

Experiment [2] has as its target recombinant BACE2 protein (Homo sapiens (Human), UniProt Q9Y5Z0). The experiment can be described thus: BACE2 Biochemical FRET based assay. The following applies: 0.4 μg/ml BACE2, 10 μM substrate, 450 min, pH 5.0.
Excerpt: as §1, with “assay” for “assay is an APP derived 13 amino acids peptide that”, “the beta-secretase,” for “BACE1,”
Briefly in a 384-well format recombinant BACE2 protein in a final concentration of 0.4 μg/ml is incubated for 450 minutes at room temperature with 10 μM substrate in incubation buffer (50 mM Citrate buffer pH 5.0, 0.05% PEG, no DMSO) in the absence or presence of compound. Next the amount of proteolysis is directly measured by fluorescence measurement at T=0 and T=450 (excitation at 320 nm and emission at 405 nm). Results are expressed in RFU (Relative Fluorescence Units), as difference between T450 and TO.

Experiment [3] relates to Abeta 1-42 secreted by human neuroblastoma SKNBE2 cells expressing wild type hAPP695. The experiment in a line: BACE1 cellular αLisa assay in SKNBE2 cells, Abeta 1-42. It is filed as cell-based. The following applies: 18 hours incubation; for IC50: Homo sapiens, read-out: Cellular αLisa assay in SKNBE2 cells Abeta 42 pIC50 (converted). Here is the method: (§2) In two αLisa assays the levels of Abeta total and Abeta 1-42 produced and secreted into the medium of human neuroblastoma SKNBE2 cells are quantified. The assay is based on the human neuroblastoma SKNBE2 expressing the wild type Amyloid Precursor Protein (hAPP695). The compounds are diluted and added to these cells, incubated for 18 hours and then measurements of Abeta 1-42 and Abeta total are taken. Abeta total and Abeta 1-42 are measured by sandwich αLisa. αLisa is a sandwich assay using biotinylated antibody AbN/25 attached to streptavidin coated beads and antibody Ab4G8 or cAb42/26 conjugated acceptor beads for the detection of Abeta total and Abeta 1-42 respectively. In the presence of Abeta total or Abeta 1-42, the beads come into close proximity. The excitation of the donor beads provokes the release of singlet oxygen molecules that trigger a cascade of energy transfer in the acceptor beads, resulting in light emission.

Experiment [4] has as its system Abeta total secreted by human neuroblastoma SKNBE2 cells expressing wild type hAPP695. The experiment in a line: BACE1 cellular αLisa assay in SKNBE2 cells, Abeta total. The experiment is classed as cell-based. The following applies: 18 hours incubation; for IC50: Homo sapiens, read-out: Cellular αLisa assay in SKNBE2 cells Abetatotal pIC50 (converted). Here is the method: as §2

The test system of experiment [5] is brain levels of soluble Aβ42, Aβ40. The experiment in a line: In vivo Aβ lowering in non-transgenic rodents (MSD electrochemiluminescence). The following applies: dose 10, s.c., untreated control = 100. The arrangement: species or system mouse. The source says:
To determine whether acute administration of an Aβ lowering agent would reduce Aβ levels in vivo, non-transgenic rodents, e.g. mice or rats were used. Animals treated with the Aβ lowering agent were examined and compared to those untreated or treated with vehicle and brain levels of soluble Aβ42, Aβ40, Aβ38, and Aβ37 were quantitated by Meso Scale Discovery's (MSD) electrochemiluminescence detection technology. Treatment periods varied from hours (h) to days and were adjusted based on the results of the Aβ lowering once a time course of onset of effect could be established.
A typical protocol for measuring Aβ lowering in vivo is shown but it is only one of many variations that could be used to optimize the levels of detectable A. For example, Aβ lowering compounds were formulated in 20% of Captisol® (a sulfo-butyl ether of β-cyclodextrin) in water or 20% hydroxypropyl β cyclodextrin. The Aβ lowering agents were administered as a single oral dose or by any acceptable route of administration to overnight fasted animals. […]
Blood was collected by decapitation and exsanguinations in EDTA-treated collection tubes. Blood was centrifuged at 1900 g for 10 minutes (min) at 4° C. and the plasma recovered and flash frozen for later analysis. The brain was removed from the cranium and hindbrain. The cerebellum was removed and the left and right hemisphere were separated. The left hemisphere was stored at −18° C. for quantitative analysis of test compound levels. The right hemisphere was rinsed with phosphate-buffered saline (PBS) buffer and immediately frozen on dry ice and stored at −80° C. until homogenization for biochemical assays.
Mouse brains from non-transgenic animals were resuspended in 8 volumes of 0.4% DEA (diethylamine)/50 mM NaCl containing protease inhibitors (Roche-11873580001 or 04693159001) per gram of tissue, e.g. for 0.158 g brain, add 1.264 ml of 0.4% DEA. All samples were homogenized in the FastPrep-24 system (MP Biomedicals) using lysing matrix D (MPBio #6913-100) at 6 m/s for 20 seconds. Homogenates were centrifuged at 20800×g for 5 min and supernatants collected. Supernatants were centrifuged at 221.300×g for 50 min. The resulting high speed supernatants were then transferred to fresh eppendorf tubes. Nine parts of supernatant were neutralized with 1 part 0.5 M Tris-HCl pH 6.8 and used to quantify Aβ.
To quantify the amount of Aβ42, Aβ40, Aβ38, and Aβ37 in the soluble fraction of the brain homogenates, simultaneous specific detection of Aβ42, Aβ40, Aβ38, and Aβ37 was performed using MSD's electro-chemiluminescence multiplex detection technology. In this assay purified monoclonal antibodies specific for Abeta37 (JRD/Aβ37/3), Abeta38 (J&JPRD/Aβ38/5), Abeta40 (JRF/cAβ40/28), and Abeta42 (JRF/cAβ(342/26) were coated on MSD 4-plex plates. Briefly, the standards (a dilution of synthetic Aβ42, Aβ40, Aβ38, and Aβ37) were prepared in 1.5 ml Eppendorf tube in Ultraculture, with final concentrations ranging from 10000 to 0.3 pg/m. The samples and standards were co-incubated with Sulfo-tag labelled JRF/rAβ/2 antibody to the N-terminus of Aβ as detector antibody. 50 μl of conjugate/sample or conjugate/standards mixtures were then added to the antibody-coated plate. The plate was allowed to incubate overnight at 4° C. in order to allow formation of the antibody-amyloid complex. Following this incubation and subsequent wash steps the assay was finished by adding read buffer according to the manufacturer's instructions (Meso Scale Discovery, Gaitherburg, Md.).
The SULFO-TAG emits light upon electrochemical stimulation initiated at the electrode. MSD Sector instrument SI6000 was used for signal read-out.
The results are shown in Table 8 (value for untreated animals as control (Ctrl) was set at 100): […]

recombinant BACE1 protein, sequence (P56817 46-501): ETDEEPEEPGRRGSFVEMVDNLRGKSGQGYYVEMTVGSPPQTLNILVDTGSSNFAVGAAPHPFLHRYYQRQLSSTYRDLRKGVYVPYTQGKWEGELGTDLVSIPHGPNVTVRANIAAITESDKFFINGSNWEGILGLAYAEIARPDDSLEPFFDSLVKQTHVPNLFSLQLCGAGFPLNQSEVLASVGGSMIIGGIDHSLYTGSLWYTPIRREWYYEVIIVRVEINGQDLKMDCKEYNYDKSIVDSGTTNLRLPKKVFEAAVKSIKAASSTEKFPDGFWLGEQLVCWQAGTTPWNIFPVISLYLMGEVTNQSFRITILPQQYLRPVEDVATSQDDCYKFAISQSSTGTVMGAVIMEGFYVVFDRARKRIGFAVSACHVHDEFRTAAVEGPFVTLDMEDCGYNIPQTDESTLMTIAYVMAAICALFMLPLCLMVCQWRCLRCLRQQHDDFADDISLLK
recombinant BACE2 protein, sequence (Q9Y5Z0 63-518): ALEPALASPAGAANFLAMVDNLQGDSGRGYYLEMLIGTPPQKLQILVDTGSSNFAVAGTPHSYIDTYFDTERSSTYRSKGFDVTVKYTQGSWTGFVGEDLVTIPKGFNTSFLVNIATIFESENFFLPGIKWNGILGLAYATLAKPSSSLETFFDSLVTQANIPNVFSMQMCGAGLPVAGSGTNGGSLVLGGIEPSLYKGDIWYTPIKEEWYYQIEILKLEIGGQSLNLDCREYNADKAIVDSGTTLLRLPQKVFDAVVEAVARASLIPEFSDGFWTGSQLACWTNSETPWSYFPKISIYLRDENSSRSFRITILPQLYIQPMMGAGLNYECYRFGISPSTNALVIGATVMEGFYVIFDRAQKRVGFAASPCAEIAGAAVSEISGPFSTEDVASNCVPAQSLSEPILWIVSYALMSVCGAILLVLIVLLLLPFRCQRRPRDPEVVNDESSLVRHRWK

With `NC1=NC(CF)(c2cc(NC(=O)c3ccc(F)cn3)ccc2F)Cn2nncc21` (racemic) [Compound 9, (rac)-N-{3-[4-amino-6-(fluoromethyl)-6,7-dihydro[1,2,3]triazolo[1,5-a]pyrazin-6-yl]-4-fluorophenyl}-5-fluoropyridine-2-carboxamide], the IC50 in experiment [1] (read-out: BACE1 Biochemical FRET based assay - Method 2 pIC50 (converted)) is 8.32 nM; in experiment [2] (read-out: BACE2 Biochemical FRET based assay pIC50 (converted)), 8.32 nM; in experiment [3], 57.5 nM; in experiment [4] it was 56.2 nM.

Take `C[C@@]1(c2cc(NC(=O)c3ccc(C#N)cn3)ccc2F)Cn2nncc2C(N)=N1` [Compound 2, N-{3-[(6R)-4-Amino-6-methyl-6,7-dihydro[1,2,3]triazolo[1,5-a]pyrazin-6-yl]-4-fluorophenyl}-5-cyanopyridine-2-carboxamide]: the IC50 is 1.1 nM in experiment [3] and 1.05 nM in experiment [4]. Also, the “Aβ40 (% vs Ctrl)_Mean” value was 44 % vs Ctrl in experiment [5] (2 h after administration) and 61 % vs Ctrl in experiment [5] (4 h after administration). Besides, the “Aβ42 (% vs Ctrl)_Mean” value in experiment [5] (2 h after administration) was found to be 44 % vs Ctrl; in experiment [5] (4 h after administration), 50 % vs Ctrl.

`C[C@@]1(c2cc(NC(=O)c3nn(C(F)F)cc3Cl)ccc2F)Cn2nncc2C(N)=N1` [Compound 5, N-{3-[(6R)-4-Amino-6-methyl-6,7-dihydro[1,2,3]triazolo[1,5-a]pyrazin-6-yl]-4-fluorophenyl}-4-chloro-1-(difluoromethyl)-1H-pyrazole-3-carboxamide]: the “BACE1 Biochemical FRET based assay - Method 2 pIC50” value (“BACE1 Biochemical FRET based assay” below) in experiment [1] is on record as 8.72. The “BACE2 Biochemical FRET based assay pIC50” value in experiment [2] is recorded as 8.73. The IC50 is 3.72 nM in experiment [3] and 3.09 nM in experiment [4].

In the case of `C[C@@]1(c2cc(NC(=O)c3cnc(OCC(F)(F)F)cn3)ccc2F)Cn2nncc2C(N)=N1` [Compound 6, N-{3-[(6R)-4-amino-6-methyl-6,7-dihydro[1,2,3]triazolo[1,5-a]pyrazin-6-yl]-4-fluoropheny}-5-(2,2,2-trifluoroethoxy)pyrazine-2-carboxamide], the “BACE1 Biochemical FRET based assay” value in experiment [1] is 8.51. In addition, the “BACE2 Biochemical FRET based assay pIC50” value in experiment [2] is 7.22. Further, the “Cellular αLisa assay in SKNBE2 cells Abeta 42 pIC50” value in experiment [3] came to 8.28. Besides, in experiment [4], the “Cellular αLisa assay in SKNBE2 cells Abetatotal pIC50” value was 8.32.

For `C[C@@]1(c2cc(NC(=O)c3cnc(OCF)cn3)ccc2F)Cn2nncc2C(N)=N1` [Compound 7, N-{3-[(6R)-4-amino-6-methyl-6,7-dihydro[1,2,3]triazolo[1,5-a]pyrazin-6-yl]-4-fluoropheny}-5-(fluoromethoxy)pyrazine-2-carboxamide], the “BACE1 Biochemical FRET based assay” value in experiment [1] turned out to be 8.52. Also, the “BACE2 Biochemical FRET based assay pIC50” value in experiment [2] is listed as 7.78. For the same molecule, the “Cellular αLisa assay in SKNBE2 cells Abeta 42 pIC50” value in experiment [3] is reported as 8.87. Further, in experiment [4], the “Cellular αLisa assay in SKNBE2 cells Abetatotal pIC50” value amounted to 8.86.

Take `C[C@@]1(c2cc(NC(=O)c3ccc(F)cn3)cc(F)c2F)Cn2nncc2C(N)=N1` [Compound 8, N-{3-[(6R)-4-Amino-6-methyl-6,7-dihydro[1,2,3]triazolo[1,5-a]pyrazin-6-yl]-4,5-difluorophenyl}-5-fluoropyridine-2-carboxamide]: the “BACE1 Biochemical FRET based assay” value in experiment [1] amounted to 8.36. Also, the IC50 is 4.68 nM in experiment [3] and 4.47 nM in experiment [4]. In addition, the “Aβ40 (% vs Ctrl)_Mean” value in experiment [5] (2 h after administration) came to 56 % vs Ctrl; in experiment [5] (4 h after administration), 136 % vs Ctrl. The “Aβ42 (% vs Ctrl)_Mean” value in experiment [5] (2 h after administration) was 56 % vs Ctrl; in experiment [5] (4 h after administration), 105 % vs Ctrl.

For the molecule `NC1=N[C@@](CF)(c2cc(NC(=O)c3ccc(F)cn3)ccc2F)Cn2nncc21` [Compound 11, N-{3-[(6S)-4-amino-6-(fluoromethyl)-6,7-dihydro[1,2,3]triazolo[1,5-a]pyrazin-6-yl]-4-fluorophenyl}-5-fluoropyridine-2-carboxamide], the “BACE1 Biochemical FRET based assay” value in experiment [1] was 6.12. For the same molecule, the “BACE2 Biochemical FRET based assay pIC50” value in experiment [2] was found to be 6.3. Also, the IC50 in experiment [3] was 4170 nM; in experiment [4], 4470 nM.

Source of the values: US9751886B2, “4-amino-6-phenyl-6,7-dihydro[1,2,3]triazolo[1,5-A]pyrazine derivatives as inhibitors of beta-secretase (BACE)” (Janssen Pharmaceutica NV, priority 2013, dated 2017).
